Reference: patent US20090311344A1, “Dosing Regimen” (priority 2008, published 2009)

Tests used:
[1] = system: platelets, reticulocytes, hematocrit; test: CBC analysis and reticulocyte counts in HT-29 tumor-bearing mice (Groups 6-9); assay type: in vivo, athymic nude mice; settings: for mean reticulocyte values: Group 7
Experimental: Five groups (n=10) of female athymic nude mice (Harlan) bearing established (˜100 mm^3) HT-29 human colon carcinomas on Day 1. Groups 6-9 (n=20) were included for blood sampling and received the same treatment as Groups 1-4, respectively. Treatment effects on the growth of tumors were evaluated by tumor growth delay (TGD), which is the difference between median time to endpoint (TTE) tumor size in a treatment group compared to a control group. […]
(§1) Group 1 mice (n=10) were untreated tumor growth controls. Group 2 mice (n=10) received 60 mg/kg carboplatin administered intraperitoneally (i.p.) on Days 1, 2, 12, and 13. Group 3 mice (n=10) received 0.2 mg/kg of the TPO mimetic peptide compound administered intravenously (i.v.) via tail vein on Days 2 and 13. Groups 4 and 5 received the combination of carboplatin (60 mg/kg i.p. on Days 1, 2, 12, and 13) and 0.2 mg/kg of the TPO mimetic peptide compound on Days 2, 13 and Days 2, 13, 23, respectively, administered intravenously (i.v.) one hour after carboplatin dosing. Groups 6-9 (n=20 each) were included for blood sampling and received the same treatments as Groups 1-4, respectively. For all groups, each dose of drug was given in a volume of 0.2 mL per 20 g of body weight (10 mL/kg), and was scaled to the body weight of each animal.
[…] Blood was collected into EDTA tubes, and complete blood counts (CBC) with differential were determined using a Cell-Dyn® 3700 System (Abbott Diagnostics) for automated hematology analyses. Reticulocyte values were determined. In addition, for Groups 1-5, five animals per group were euthanized at or just after endpoint by terminal cardiac puncture under CO2 anesthesia, and gross necropsies were performed. Blood samples were collected into EDTA tubes, and CBC with differential and reticulocyte values were performed as previously described. All other animals in Groups 1-5 were euthanized at endpoint without sampling.

[2] = system: HT-29 human colon carcinoma xenografts; test: HT-29 human colon carcinoma xenografts in athymic nude mice: tumor growth delay; assay type: in vivo
From the text: Administration of the TPO Mimetic Peptide Compound One Hour After Administration of Carboplatin. Effect on activity and toxicity of carboplatin against HT-29 human colon carcinoma xenografts established in athymic nude mice.
Five groups (n=10) of female athymic nude mice (Harlan) bearing established (˜100 mm^3) HT-29 human colon carcinomas on Day 1. Groups 6-9 (n=20) were included for blood sampling and received the same treatment as Groups 1-4, respectively. Treatment effects on the growth of tumors were evaluated by tumor growth delay (TGD), which is the difference between median time to endpoint (TTE) tumor size in a treatment group compared to a control group. The effect of these treatments on platelet and erythrocyte precursors was determined from CBC analysis and reticulocyte counts of blood samples taken on Days 10, 13, 21 and 24.
Xenografts were initiated from HT-29 human colon carcinoma xenografts maintained in athymic nude mice. HT-29 tumor fragments (1 mm^3) were implanted subcutaneously into the right flank of each test mouse, and tumor growth was monitored. On Day 1 of the study, the animals were pair-matched into five groups (Groups 1-5) for evaluation of efficacy and four groups for sampling (Groups 6-9). Groups 1-5 each consisted of ten animals with tumor sizes ranging from 75-126 mm^3 and group mean tumor sizes of 99 mm^3. Groups 6-9 each consisted of twenty animals with tumor sizes ranging from 40-221 mm^3 and group mean tumor sizes of 84 mm^3. Tumor weight was estimated with the assumption that 1 mg is equivalent to 1 mm^3 of tumor volume. Volume was calculated using the formula:
as §1
Tumors were measured twice each week using calipers. Each animal was euthanized when its tumor reached the predetermined endpoint size of 1000 mm^3, or on the final day of the study (Day 62), whichever came first. The time to endpoint (TTE) for each mouse was calculated from the following equation: […]
where b is the intercept and m is the slope of the line obtained by linear regression of a log-transformed tumor growth data set. The data set was comprised of the first observation that exceeded the study endpoint volume and the three consecutive observations that immediately preceded the attainment of the endpoint volume.
Treatment outcome was determined from tumor growth delay (TGD), which is defined as the increase in the median time to endpoint (TTE) in a treatment group compared to the control group:
where: • T=median TTE for a treatment group, • C=median TTE for the control group (Group 1)
Treatment may cause partial regression (PR) or complete regression (CR) of the tumor in an animal. In a PR response, the tumor volume is 50% or less of its Day 1 volume for three consecutive measurements during the course of the study, and equal to or greater than 13.5 mm^3 for one or more of these three measurements. In a CR response, the tumor volume is less than 13.5 mm^3 for three consecutive measurements during the course of the study. An animal with a CR response at the termination of a study is additionally classified as a long-term tumor-free survivor (LTTFS). […]

Q: `N.N.O=C([O-])C1(C(=O)[O-])CCC1.[Pt+2]` [carboplatin, Carboplatin, reference compound] was tested. Which “mean HCT values of Group 7 compared to Group 9” value ([1]; Days 13, 21, and 23) did it give?
A: slightly lower

Q: And the mean reticulocyte values ([1]; Day 10 (near the expected nadir))?
A: negligible

Q: What about the mean reticulocyte values ([1]; Day 13) of the same compound?
A: higher than in control mice

Q: What about the mean reticulocyte values ([1]; Day 21 after the second cycle of treatment) of the same compound?
A: low

Q: And the “mean hematocrit (HCT) values compared to untreated mice (Group 6)” value ([1]; Groups 7-9)?
A: lower mean HCT values than controls

Q: What about the “mean platelet counts compared to untreated Group 6 controls” value ([1]; Groups 7-9, regimens as Groups 2-4, Days 10, 13, 21, and 23) of the same compound?
A: lower mean platelet counts at all time points

Q: What about the regression responses ([2]; Group 2) of the same compound?
A: No regression responses were recorded

Q: What about the “number of 62-day survivors” value ([2]; Group 2, n=10) of the same compound?
A: 1

Q: What about the “tumor volume of the animal remaining in the study on Day 62” value ([2]; Group 2, one animal) of the same compound?
A: 600 mm^3

Q: And the “Tumor Burden Median” value ([2]; Group 2: carboplatin 60 mg/kg i.p. Days 1, 2, 12, 13, (n animals) in brackets)?
A: 600(1)

Q: What about the “TGD (tumor growth delay)” value ([2]; Groups 2-4, relative to untreated Group 1, carboplatin 60 mg/kg i.p. Days 1, 2, 12, 13, TPO mimetic peptide compound 0.2 mg/kg i.v. Days 2, 13) of the same compound?
A: 22.8 days

Q: What about the “% Tumor Growth Delay” value ([2]; HT-29 xenografts, athymic nude mice, n=10, carboplatin 60 mg/kg i.p. Days 1, 2, 12, 13, TPO mimetic peptide compound 0.2 mg/kg i.v. Days 2, 13, Groups 2-4, vs untreated Group 1) of the same compound?
A: 92%

Q: What about the “Median TTE” value ([2]; HT-29 xenografts, athymic nude mice, n=10, carboplatin 60 mg/kg i.p. Days 1, 2, 12, 13, TPO mimetic peptide compound 0.2 mg/kg i.v. Days 2, 13, Groups 2-4, endpoint 1000 mm^3) of the same compound?
A: 47.6 days
